Results as given in ChEMBL document CHEMBL1201862, “PubChem BioAssay data set” (2004).
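Exposure lasted 48 hours, with cells grown in 96-well plates and compounds tested at five concentrations. GI50 is the concentration that inhibits growth by half.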 Activity calls are given as the source filed them. Rule as the data show it: active = GI50 up to about 1.1 µM and inactive = higher.

Tests used:
Assay in all cases: NCI-60 cell line screen, 48 h
[1] = tested on: HT-29
[2] = tested on: NCI-H23
[3] = tested on: NCI-H460
[4] = tested on: OVCAR-5
[5] = tested on: OVCAR-8
[6] = tested on: SF-539
[7] = tested on: SK-MEL-2
[8] = tested on: SW-620
[9] = tested on: U-251
[10] = tested on: UACC-257
[11] = tested on: UACC-62
[12] = tested on: 786-0
[13] = tested on: A498
[14] = tested on: NCI-H522

Cc1cc(O)nc(NN2C(Cl)C(=O)C2c2cccc(O)c2)n1 (stereo not given)
GI50 [1]: 41.7 µM (inactive)
GI50 [2]: 5.73 µM (inactive)
GI50 [3]: 4.82 µM (inactive)
GI50 [4]: 24.9 µM (inactive)
GI50 [5]: 7.21 µM (inactive)
GI50 [6]: 2.74 µM (inactive)
GI50 [7]: 4.43 µM (inactive)
GI50 [8]: 12.4 µM (inactive)
GI50 [9]: 3.05 µM (inactive)
GI50 [10]: 18.7 µM (inactive)
GI50 [11]: 3.37 µM (inactive)

CCCCOC(=O)NC(=O)c1cn(CCCOC(=O)CCCCCCCCC(=O)OCCCn2cc(C(=O)NC(=O)OCCCC)c(=O)n(C)c2=O)c(=O)n(C)c1=O
GI50 [12]: > 100 µM (inactive)
GI50 [13]: > 100 µM (inactive)
GI50 [1]: > 100 µM (inactive)
GI50 [2]: > 100 µM (inactive)
GI50 [3]: > 100 µM (inactive)
GI50 [14]: > 100 µM (inactive)
GI50 [4]: > 100 µM (inactive)
GI50 [5]: > 100 µM (inactive)
GI50 [6]: > 100 µM (inactive)
GI50 [7]: > 100 µM (inactive)
GI50 [8]: > 100 µM (inactive)
GI50 [9]: > 100 µM (inactive)
GI50 [10]: > 100 µM (inactive)
GI50 [11]: > 100 µM (inactive)

COc1ccc(/C(=N\NC(=O)NN)C(c2ccc(OC)cc2)C2(O)C(=O)Nc3c(Cl)cc(Cl)cc32)cc1 (stereo not given)
GI50 [12]: 61.4 µM (inactive)
GI50 [1]: > 100 µM (inactive)
GI50 [2]: > 100 µM (inactive)
GI50 [3]: > 100 µM (inactive)
GI50 [4]: > 100 µM (inactive)
GI50 [5]: > 100 µM (inactive)
GI50 [7]: > 100 µM (inactive)
GI50 [8]: > 100 µM (inactive)
GI50 [9]: > 100 µM (inactive)
GI50 [10]: > 100 µM (inactive)
GI50 [11]: > 100 µM (inactive)

Cc1cccc2c1C(=O)OC2(c1cccc2ccccc12)c1cccc2ccccc12
GI50 [12]: 52.8 µM (inactive)
GI50 [13]: > 100 µM (inactive)
GI50 [1]: > 100 µM (inactive)
GI50 [2]: 26.7 µM (inactive)
GI50 [3]: > 100 µM (inactive)
GI50 [14]: 61 µM (inactive)
GI50 [4]: > 100 µM (inactive)
GI50 [5]: 40.2 µM (inactive)
GI50 [7]: > 100 µM (inactive)
GI50 [8]: > 100 µM (inactive)
GI50 [9]: 70.1 µM (inactive)
GI50 [10]: > 100 µM (inactive)
GI50 [11]: > 100 µM (inactive)

CCN(CC)C(=S)SS(C)(=O)=O
GI50 [12]: 19.2 µM (inactive)
GI50 [1]: 17.3 µM (inactive)
GI50 [2]: 19.9 µM (inactive)
GI50 [14]: < 0.01 µM (active)
GI50 [4]: 19.4 µM (inactive)
GI50 [5]: 19.8 µM (inactive)
GI50 [6]: 22 µM (inactive)
GI50 [7]: 17.7 µM (inactive)
GI50 [8]: 18.5 µM (inactive)
GI50 [9]: 17.7 µM (inactive)
GI50 [10]: 23.2 µM (inactive)
GI50 [11]: 15.1 µM (inactive)

CCOC(=O)C12CC1(C(=O)OCC)C1CCC2C1 (stereo not given)
GI50 [12]: > 100 µM (inactive)
GI50 [13]: > 100 µM (inactive)
GI50 [1]: > 100 µM (inactive)
GI50 [2]: > 100 µM (inactive)
GI50 [3]: > 100 µM (inactive)
GI50 [4]: > 100 µM (inactive)
GI50 [5]: > 100 µM (inactive)
GI50 [8]: > 100 µM (inactive)
GI50 [9]: > 100 µM (inactive)
GI50 [10]: 44.7 µM (inactive)
GI50 [11]: > 100 µM (inactive)

Cc1cccc(/N=C2\NC(=O)C(CC(=O)Nc3ccc(C)cc3C)S2)c1 (stereo not given)
GI50 [12]: > 100 µM (inactive)
GI50 [13]: > 100 µM (inactive)
GI50 [1]: > 100 µM (inactive)
GI50 [2]: 57 µM (inactive)
GI50 [3]: > 100 µM (inactive)
GI50 [14]: 64.3 µM (inactive)
GI50 [4]: 88.1 µM (inactive)
GI50 [5]: 70.6 µM (inactive)
GI50 [6]: > 100 µM (inactive)
GI50 [7]: > 100 µM (inactive)
GI50 [8]: > 100 µM (inactive)
GI50 [9]: > 100 µM (inactive)
GI50 [10]: > 100 µM (inactive)
GI50 [11]: 68.2 µM (inactive)

O/N=C1/C(=C/c2ccc(F)cc2)CCCC1C(NO)c1ccc(F)cc1 (stereo not given)
GI50 [12]: 76.2 µM (inactive)
GI50 [13]: > 100 µM (inactive)
GI50 [1]: 21.6 µM (inactive)
GI50 [2]: 16.6 µM (inactive)
GI50 [3]: > 100 µM (inactive)
GI50 [14]: 17.5 µM (inactive)
GI50 [5]: 35.8 µM (inactive)
GI50 [6]: 42.2 µM (inactive)
GI50 [7]: 34.6 µM (inactive)
GI50 [8]: 51.9 µM (inactive)
GI50 [9]: 46.8 µM (inactive)
GI50 [10]: 25.4 µM (inactive)
GI50 [11]: 34.4 µM (inactive)

CCOC(OCC)(OCC)C(Br)CC (stereo not given)
GI50 [12]: 16.4 µM (inactive)
GI50 [13]: > 100 µM (inactive)
GI50 [1]: 53.6 µM (inactive)
GI50 [2]: > 100 µM (inactive)
GI50 [3]: > 100 µM (inactive)
GI50 [14]: > 100 µM (inactive)
GI50 [4]: > 100 µM (inactive)
GI50 [5]: > 100 µM (inactive)
GI50 [6]: > 100 µM (inactive)
GI50 [7]: > 100 µM (inactive)
GI50 [9]: > 100 µM (inactive)
GI50 [10]: > 100 µM (inactive)
GI50 [11]: > 100 µM (inactive)

COC(=O)C1=C(C)N(NC(=O)c2ccccc2)C2(O)CCCC(=O)C12C (stereo not given)
GI50 [13]: > 100 µM (inactive)
GI50 [1]: > 100 µM (inactive)
GI50 [2]: > 100 µM (inactive)
GI50 [14]: > 100 µM (inactive)
GI50 [4]: > 100 µM (inactive)
GI50 [5]: > 100 µM (inactive)
GI50 [6]: > 100 µM (inactive)
GI50 [7]: > 100 µM (inactive)
GI50 [8]: > 100 µM (inactive)
GI50 [9]: > 100 µM (inactive)
GI50 [10]: > 100 µM (inactive)
GI50 [11]: > 100 µM (inactive)

CC(=O)OCc1ncccc1C(OC(C)=O)OC(C)=O
GI50 [12]: > 100 µM (inactive)
GI50 [13]: > 100 µM (inactive)
GI50 [1]: > 100 µM (inactive)
GI50 [2]: > 100 µM (inactive)
GI50 [3]: > 100 µM (inactive)
GI50 [14]: > 100 µM (inactive)
GI50 [4]: > 100 µM (inactive)
GI50 [5]: > 100 µM (inactive)
GI50 [6]: > 100 µM (inactive)
GI50 [7]: > 100 µM (inactive)
GI50 [8]: > 100 µM (inactive)
GI50 [9]: > 100 µM (inactive)
GI50 [10]: > 100 µM (inactive)
GI50 [11]: > 100 µM (inactive)

CCOc1ccc(OCC(=O)O)c2c1CCCC2=O
GI50 [12]: > 100 µM (inactive)
GI50 [13]: > 100 µM (inactive)
GI50 [1]: > 100 µM (inactive)
GI50 [2]: > 100 µM (inactive)
GI50 [3]: > 100 µM (inactive)
GI50 [14]: > 100 µM (inactive)
GI50 [4]: > 100 µM (inactive)
GI50 [5]: > 100 µM (inactive)
GI50 [6]: > 100 µM (inactive)
GI50 [7]: > 100 µM (inactive)
GI50 [8]: > 100 µM (inactive)
GI50 [9]: > 100 µM (inactive)
GI50 [10]: > 100 µM (inactive)
GI50 [11]: > 100 µM (inactive)

COc1nc2[nH]ccc2c(=O)n1C
GI50 [13]: > 100 µM (inactive)
GI50 [1]: > 100 µM (inactive)
GI50 [2]: > 100 µM (inactive)
GI50 [3]: > 100 µM (inactive)
GI50 [4]: > 100 µM (inactive)
GI50 [5]: > 100 µM (inactive)
GI50 [6]: > 100 µM (inactive)
GI50 [7]: > 100 µM (inactive)
GI50 [8]: > 100 µM (inactive)
GI50 [9]: > 100 µM (inactive)
GI50 [10]: > 100 µM (inactive)

COc1cccc2c1C(=O)c1c(O)c3c(c(O)c1C2=O)C[C@@](O)(C(=O)CO)CC3OC1CC(NCCCCC(OC(C)=O)OC(C)=O)C(O)C(C)O1 (stereo not given in full)
GI50 [12]: 0.00298 µM (active)
GI50 [13]: 0.00365 µM (active)
GI50 [1]: 0.00312 µM (active)
GI50 [3]: 0.00115 µM (active)
GI50 [14]: 0.0015 µM (active)
GI50 [4]: 0.0047 µM (active)
GI50 [5]: 0.00305 µM (active)
GI50 [6]: 0.00212 µM (active)
GI50 [7]: 0.00212 µM (active)
GI50 [8]: 0.00259 µM (active)
GI50 [9]: 0.00173 µM (active)
GI50 [10]: 0.00468 µM (active)
GI50 [11]: 0.00182 µM (active)

Cn1cnc([N+](=O)[O-])c1Sc1nccc(O)n1
GI50 [12]: > 100 µM (inactive)
GI50 [13]: > 100 µM (inactive)
GI50 [1]: > 100 µM (inactive)
GI50 [2]: > 100 µM (inactive)
GI50 [3]: > 100 µM (inactive)
GI50 [14]: > 100 µM (inactive)
GI50 [4]: > 100 µM (inactive)
GI50 [5]: > 100 µM (inactive)
GI50 [6]: > 100 µM (inactive)
GI50 [7]: > 100 µM (inactive)
GI50 [8]: > 100 µM (inactive)
GI50 [9]: > 100 µM (inactive)
GI50 [10]: > 100 µM (inactive)
GI50 [11]: > 100 µM (inactive)
